Laboratory results: US8877745B2, “CCR2 receptor antagonists, method for producing the same, and use thereof as medicaments” (Boehringer Ingelheim International GmbH, priority 2010, dated 2014)

Biological target: T1, CCR2 (Homo sapiens, UniProt P41597)
T1 construct: Membranes were prepared from THP-1 cells; endogenous in cells; host or cells: THP-1 (human acute monocytic leukaemia cells), membrane preparation
Assay: CCR2 receptor membrane binding assay ([125I]MCP-1, THP-1 cell membranes, SPA beads)
Conditions: THP-1 membranes, [125I]MCP-1, bound radioactivity determined after 8 h; read-out: hKi
Procedure: The above exemplary substances have been tested for binding to CCR2 using a binding assay as outlined herein below:
THP-1 cells (human acute monocytic leukaemia cells) were cultured under standardized conditions at 37° C. and 5% CO2 in a humidified incubator. THP-1 cells were cultivated in RPMI 1640 medium (Gibco 21875) containing 1% MEM-NEAA (Gibso 11140) 2 mM L-glutamine, 1.5 g/L sodium bicarbonate, 4.5 g/L glucose, 10 mM HEPES and 1.0 mM sodium pyruvate, 90%; 10% fetal calf serum (FCS Gibco 10500-064).
Membranes were prepared from THP-1 cells. THP-1 cells were centrifuged at 300×g at 4° C. for 10 min. The cell pellet was resuspended in Phosphate Buffer Saline (PBS, including 10 μM Pefabloc and a protease inhibitor mix ‘complete’, Boehringer Mannheim (1 tablet/50 ml)), to a concentration of […]. The membrane preparation was performed by disrupting the cells by nitrogen […] (at 50 bar, for 1 h) in a “Nitrogen Bombe” (Parr Instrument). Cell debris was removed by centrifugation (800×g at 4° C., 1 min). The supernatant was centrifuged at 80000×g, 4° C. for 30 min to sediment the cell membranes. Usually 50 mg of protein (Bradford assay) were yielded from 1×10E9 cells. The membranes were resuspended in 25 mM HEPES, 25 mM MgCl2, 1 mM CaCl2, 10% Glycerine for storage in aliquots at −80° C. in 25 mM HEPES, 25 mM MgCl2, 1 mM CaCl2, 10% Glycerine and stored at −80° C.
Receptor Membrane Binding Assay:
Perkin Elmer NEX 332 Jod 125 MCP-1, Stock: 2200 Ci/mmol solved in […] assay buffer, stored at −20° C. THP-1 membrane were adjusted with 25 mM HEPES, pH 7.2; 5 mM MgCl2; 0.5 mM CaCl2; 0.2% BSA assay buffer to a concentration of 2.5 μg/15 μl. Amersham Biosciences PVT-WGA Beads (RPNQ0001) were adjusted with assay buffer to a concentration of 0.24 mg/30 μl. For preparation of the membrane-bead-suspension membranes and beads were incubated for 30 min at RT under rotation (60 rpm) with a ratio of 1:2. Test compounds dissolved in 100% DMSO to a concentration of 10 mM and are further diluted with 100% DMSO to 1 mM. All additional compound dilutions were obtained with assay buffer, final 1% DMSO. Compounds, membrane-bead-suspension and [^125I]MCP-1 (ca. 25000 cpm/10 μl) were incubated. Bound radioactivity was determined by scintillation counter after 8 h. Determination of affinity of test compounds (dissociation constant hKi) is calculated by iterative fitting of experimental data using the “easy sys” program, which is based on law of mass action (Schittkowski K. (1994), Numerische Mathematik, Vol. 68, 129-142).

T1 sequence (P41597 whole entry): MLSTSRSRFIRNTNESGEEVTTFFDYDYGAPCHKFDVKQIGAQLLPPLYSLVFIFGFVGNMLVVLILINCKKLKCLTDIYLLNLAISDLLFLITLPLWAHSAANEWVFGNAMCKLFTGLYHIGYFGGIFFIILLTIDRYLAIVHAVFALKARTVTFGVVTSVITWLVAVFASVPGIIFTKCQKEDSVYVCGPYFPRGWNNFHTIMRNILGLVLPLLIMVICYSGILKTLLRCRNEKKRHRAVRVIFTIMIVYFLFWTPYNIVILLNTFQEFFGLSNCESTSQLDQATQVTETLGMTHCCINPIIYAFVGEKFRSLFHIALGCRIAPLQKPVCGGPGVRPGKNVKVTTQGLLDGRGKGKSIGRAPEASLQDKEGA

Row | Ki | Compound
1 | 15 nM | Cc1c(C(=O)N2CCC(N3CCC(N(C)S(C)(=O)=O)CC3)CC2)ncnc1N1CCc2ccc(C(F)(F)F)cc2C1 [Example 1]
2 | 507 nM | COC1COCCC1NC1CCN(C(=O)c2ncnc(N3CCc4cccc(C(F)(F)F)c4C3)c2C)CC1 (stereo not shown) [Example 2]
3 | 1090 nM | COC1COCCC1NC1CCN(C(=O)c2ncnc(N3CCOC(c4ccc(Cl)cc4)C3)c2C)CC1 (stereo not shown) [Example 4]
4 | 4170 nM | COC1COCCC1NC1CCN(C(=O)c2ncnc(N3CCOC(c4ccccc4)C3)c2C)CC1 (stereo not shown) [Example 5]
5 | 14 nM | COC1COCCC1NC1CCN(C(=O)c2ncnc(N3CCc4ccc(Cl)cc4C3)c2C)CC1 (stereo not shown) [Example 10]
6 | 1100 nM | COC1COCCC1NC1CCN(C(=O)c2ncnc(N3CCCC(c4cccc(F)c4)C3)c2C)CC1 (stereo not shown) [Example 12]
7 | 739 nM | COC1COCCC1NC1CCN(C(=O)c2ncnc(N3CCC(c4ccc(C)cc4)CC3)c2C)CC1 (stereo not shown) [Example 13]
8 | 1050 nM | Cc1c(C(=O)N2CCC(N3CCC(N(C)S(C)(=O)=O)CC3)CC2)ncnc1N1CCC(c2ccc(C(F)(F)F)cc2)CC1 [Example 17]
9 | 480 nM | Cc1c(C(=O)N2CCC(N3CCC(N(C)S(C)(=O)=O)CC3)CC2)ncnc1N1CCC(c2cccc(C(F)(F)F)c2)CC1 [Example 20]
10 | 4410 nM | COc1ccc(C2CCN(c3ncnc(C(=O)N4CCC(N5CCC(N(C)S(C)(=O)=O)CC5)CC4)c3C)CC2)cc1 [Example 21]
11 | 455 nM | COC1COCCC1NC1CCN(C(=O)c2ncnc(N3CCC4(C=Cc5ccccc54)CC3)c2C)CC1 (stereo not shown) [Example 23]
12 | 3680 nM | Cc1c(C(=O)N2CCC(N3CCC(N(C)S(C)(=O)=O)CC3)CC2)ncnc1N1CCC(c2ccccc2)CC1 [Example 28]
13 | 2110 nM | COC1COCCC1NC1CCN(C(=O)c2ncnc(N3CCCC(c4ccc(C)cc4)C3)c2C)CC1 (stereo not shown) [Example 33]
14 | 18 nM | Cc1c(C(=O)N2CCC(N3CCC(NS(C)(=O)=O)CC3)CC2)ncnc1N1CCc2ccc(C(F)(F)F)cc2C1 [Example 37]
15 | 230 nM | COC1COCCC1NC1CCN(C(=O)c2ncnc(N3CCC(c4cccc(C(F)(F)F)c4)CC3)c2C)CC1 (stereo not shown) [Example 42]
16 | 3920 nM | Cc1c(C(=O)N2CCC(N3CCC(N(C)S(C)(=O)=O)CC3)CC2)ncnc1N1CCC(c2ccccc2F)C1 (stereo not shown) [Example 44]
17 | 1170 nM | Cc1c(C(=O)N2CCC(N3CCC(N(C)S(C)(=O)=O)CC3)CC2)ncnc1N1CCC(c2cccc(C(F)(F)F)c2)C1 (stereo not shown) [Example 46]
18 | 405 nM | COC1COCCC1NC1CCN(C(=O)c2ncnc(N3CCC(c4ccccc4F)C3)c2C)CC1 (stereo not shown) [Example 51]
19 | 235 nM | COC1COCCC1NC1CCN(C(=O)c2ncnc(N3CCc4ccc(C#N)cc4C3)c2C)CC1 (stereo not shown) [Example 55]
20 | 1020 nM | COC1COCCC1NC1CCN(C(=O)c2ncnc(N3CCN(c4ccc(C(F)(F)F)cn4)CC3)c2C)CC1 (stereo not shown) [Example 56]
21 | 189 nM | COC1COCCC1NC1CCN(C(=O)c2ncnc(N3CCN(c4cccc(C(F)(F)F)c4)CC3)c2C)CC1 (stereo not shown) [Example 57]

More lines, now with the values behind:

Row | Compound | Ki
22 | Cc1c(C(=O)N2CCC(N3CCC(N(C)S(C)(=O)=O)CC3)CC2)ncnc1N1CCOC(c2ccc(Cl)cc2)C1 (stereo not shown) [Example 3] | 3690 nM
23 | Cc1c(C(=O)N2CCC(N3CCC(N(C)S(C)(=O)=O)CC3)CC2)ncnc1N1CCC2(CCc3ccccc32)CC1 [Example 6] | 1640 nM
24 | COC1COCCC1NC1CCN(C(=O)c2ncnc(N3CCc4ccc(F)cc4C3)c2C)CC1 (stereo not shown) [Example 7] | 27 nM
25 | COC1COCCC1NC1CCN(C(=O)c2ncnc(N3CCc4ccc(OC(F)(F)F)cc4C3)c2C)CC1 (stereo not shown) [Example 8] | 11 nM
26 | COC1COCCC1NC1CCN(C(=O)c2ncnc(N3CCCC(c4cccc(C(F)(F)F)c4)C3)c2C)CC1 (stereo not shown) [Example 9] | 2150 nM
27 | Cc1c(C(=O)N2CCC(N3CCC(N(C)S(C)(=O)=O)CC3)CC2)ncnc1N1CCC2(C=Cc3ccccc32)CC1 [Example 11] | 2160 nM
28 | COc1ccc(C2CCN(c3ncnc(C(=O)N4CCC(NC5CCOCC5OC)CC4)c3C)CC2)cc1 (stereo not shown) [Example 14] | 1610 nM
29 | COC1COCCC1NC1CCN(C(=O)c2ncnc(N3CCC(c4cccc(C)c4)CC3)c2C)CC1 (stereo not shown) [Example 15] | 732 nM
30 | COC1COCCC1NC1CCN(C(=O)c2ncnc(N3CCC(c4ccccc4)CC3)c2C)CC1 (stereo not shown) [Example 16] | 1510 nM
31 | COC1COCCC1NC1CCN(C(=O)c2ncnc(N3CCC(c4ccc(Cl)cc4)CC3)c2C)CC1 (stereo not shown) [Example 18] | 331 nM
32 | COC1COCCC1NC1CCN(C(=O)c2ncnc(N3CCC4(CC3)OCc3ccccc34)c2C)CC1 (stereo not shown) [Example 19] | 3620 nM
33 | Cc1c(C(=O)N2CCC(N3CCC(N(C)S(C)(=O)=O)CC3)CC2)ncnc1N1CCC(c2cccc(F)c2)CC1 [Example 22] | 3790 nM
34 | Cc1ccc(C2CCN(c3ncnc(C(=O)N4CCC(N5CCC(N(C)S(C)(=O)=O)CC5)CC4)c3C)CC2)cc1 [Example 24] | 1300 nM
35 | Cc1c(C(=O)N2CCC(N3CCC(N(C)S(C)(=O)=O)CC3)CC2)ncnc1N1CCC(c2ccccc2C(F)(F)F)CC1 [Example 25] | 657 nM
36 | Cc1c(C(=O)N2CCC(N3CCC(N(C)S(C)(=O)=O)CC3)CC2)ncnc1N1CCC(c2ccc(Cl)cc2)CC1 [Example 26] | 1970 nM
37 | Cc1c(C(=O)N2CCC(N3CCC(N(C)S(C)(=O)=O)CC3)CC2)ncnc1N1CCC(c2cccc(Cl)c2)CC1 [Example 27] | 661 nM
38 | COC1COCCC1NC1CCN(C(=O)c2ncnc(N3CCC(c4ccccc4C(F)(F)F)CC3)c2C)CC1 (stereo not shown) [Example 29] | 241 nM
39 | Cc1cccc(C2CCN(c3ncnc(C(=O)N4CCC(N5CCC(N(C)S(C)(=O)=O)CC5)CC4)c3C)CC2)c1 [Example 30] | 1360 nM
40 | COC1COCCC1NC1CCN(C(=O)c2ncnc(N3CCCC(c4cccc(Cl)c4)C3)c2C)CC1 (stereo not shown) [Example 31] | 1710 nM

Row | Compound | Ki
41 | COC1COCCC1NC1CCN(C(=O)c2ncnc(N3CCCC(c4ccc(F)cc4)C3)c2C)CC1 (stereo not shown) [Example 32] | 3600 nM
42 | Cc1c(C(=O)N2CCC(N3CCC(N(C)S(C)(=O)=O)CC3)CC2)ncnc1N1CCCC(c2ccc(C(F)(F)F)cc2)C1 (stereo not shown) [Example 34] | 4250 nM
43 | Cc1c(C(=O)N2CCC(N3CCC(N(C)S(C)(=O)=O)CC3)CC2)ncnc1N1CCCCC1c1cccc(Cl)c1 (stereo not shown) [Example 35] | 2860 nM
44 | COC1COCCC1NC1CCN(C(=O)c2ncnc(N3CCCC(c4ccc(C(F)(F)F)cc4)C3)c2C)CC1 (stereo not shown) [Example 36] | 1270 nM
45 | COC1COCCC1NC1CCN(C(=O)c2ncnc(N3CCc4c(Cl)cccc4C3)c2C)CC1 (stereo not shown) [Example 38] | 168 nM
46 | COC1COCCC1NC1CCN(C(=O)c2ncnc(N3CCc4c(Cl)cc(Cl)cc4C3)c2C)CC1 (stereo not shown) [Example 39] | 49 nM
47 | COC1COCCC1NC1CCN(C(=O)c2ncnc(N3CCc4ncc(Br)cc4C3)c2C)CC1 (stereo not shown) [Example 40] | 304 nM
48 | COC1COCCC1NC1CCN(C(=O)c2ncnc(N3CCC(c4ccc(C(F)(F)F)cc4)CC3)c2C)CC1 (stereo not shown) [Example 41] | 432 nM
49 | COC1COCCC1NC1CCN(C(=O)c2ncnc(N3Cc4ccc(C(F)(F)F)cc4C3)c2C)CC1 (stereo not shown) [Example 43] | 49 nM
50 | Cc1c(C(=O)N2CCC(N3CCC(N(C)S(C)(=O)=O)CC3)CC2)ncnc1N1CCC(c2ccc(C(F)(F)F)cc2)C1 (stereo not shown) [Example 45] | 1170 nM
51 | Cc1c(C(=O)N2CCC(N3CCC(N(C)S(C)(=O)=O)CC3)CC2)ncnc1N1CCC(c2ccc(Cl)cc2)C1 (stereo not shown) [Example 47] | 1100 nM
52 | COC1COCCC1NC1CCN(C(=O)c2ncnc(N3CCC(c4ccc(C(F)(F)F)cc4)C3)c2C)CC1 (stereo not shown) [Example 48] | 159 nM
53 | COC1COCCC1NC1CCN(C(=O)c2ncnc(N3CCC(c4ccccc4C(F)(F)F)C3)c2C)CC1 (stereo not shown) [Example 49] | 161 nM
54 | COC1COCCC1NC1CCN(C(=O)c2ncnc(N3CCC(c4ccccc4)C3)c2C)CC1 (stereo not shown) [Example 50] | 451 nM
55 | COC1COCCC1NC1CCN(C(=O)c2ncnc(N3CCC(c4cccc(C(F)(F)F)c4)C3)c2C)CC1 (stereo not shown) [Example 52] | 270 nM
56 | COC1COCCC1NC1CCN(C(=O)c2ncnc(N3CCC(c4ccc(Cl)cc4)C3)c2C)CC1 (stereo not shown) [Example 53] | 172 nM
57 | COC1COCCC1NC1CCN(C(=O)c2ncnc(N3CCc4ccccc4CC3)c2C)CC1 (stereo not shown) [Example 54] | 636 nM
58 | COC1COCCC1NC1CCN(C(=O)c2ncnc(N3CCCc4ccccc4C3)c2C)CC1 (stereo not shown) [Example 58] | 4240 nM
